Measured values as given in ChEMBL document CHEMBL4014349, “Application of Structure-Based Design and Parallel Chemistry to Identify a Potent, Selective, and Brain Penetrant Phosphodiesterase 2A Inhibitor” (J Med Chem, 2017).

Legend:
Format in all cases: ADME, organism-based
[1] = Drug uptake in mouse brain at […], sc after 30 mins; details: read-out: Drug uptake
[2] = Drug uptake in rat brain at 3 mg/kg, sc after 30 mins; details: read-out: Drug uptake
Brain [3] = assay: Unbound concentration in mouse brain at […], sc after 30 mins; details: in vivo, 0.5 h
Brain [4] = assay: Unbound concentration in rat brain at 3 mg/kg, sc after 30 mins; details: in vivo, 0.5 h
[5] = Drug uptake in mouse plasma at […], sc after 30 mins
[6] = Drug uptake in rat plasma at 3 mg/kg, sc after 30 mins
Plasma [7] = assay: Unbound concentration in mouse plasma at […], sc after 30 mins; details: in vivo, 0.5 h
Plasma [8] = assay: Unbound concentration in rat plasma at 3 mg/kg, sc after 30 mins; details: in vivo, 0.5 h
[9] = Ratio of unbound concentration in mouse brain to plasma at […], sc after 30 mins; details: brain and plasma, read-out: K(p,uu,brain)
[10] = Ratio of unbound concentration in rat brain to plasma at 3 mg/kg, sc after 30 mins; details: brain and plasma, read-out: K(p,uu,brain)
[11] = Drug uptake in rat cerebrospinal fluid at 3 mg/kg, sc after 30 mins; details: read-out: Drug uptake

Structure (SMILES): Cn1ncc(-c2nn(C)c3ncnc(N4CCC4)c23)c1-c1ccc(C(F)(F)F)cc1
- concentration at 0.5 h [1]: 452 nM
- concentration at 0.5 h [2]: 950 nM
- Drug uptake(free) (Brain [3]): 43 nM
- Drug uptake(free) (Brain [4]): 90.2 nM
- concentration at 0.5 h [5]: 798 nM
- concentration at 0.5 h [6]: 776 nM
- Cp(f) (Plasma [7]): 160 nM
- Cp(f) (Plasma [8]): 248 nM
- Kp uu at 0.5 h [9]: 0.27
- Kp uu at 0.5 h [10]: 0.37
- concentration at 0.5 h [11]: 79.9 nM
